Data reported in paper PMC6407579, “New flavonoid – N,N-dibenzyl(N-methyl)amine hybrids: Multi-target-directed agents for Alzheimer´s disease endowed with neurogenic properties” (Journal of Enzyme Inhibition and Medicinal Chemistry, 2019).
Where “and” joins values, the source holds several entries; their conditions need not be identical. Equal entries are not always repeated. Where two headings read alike, the source gives them in different places.

Key:
[1] = biological target: T1, human recombinant AChE (hAChE) (Homo sapiens, UniProt P22303); assay: biochemical
T1 construct: purchased Sigma Chemical Co
T1 sequence (P22303 32-614): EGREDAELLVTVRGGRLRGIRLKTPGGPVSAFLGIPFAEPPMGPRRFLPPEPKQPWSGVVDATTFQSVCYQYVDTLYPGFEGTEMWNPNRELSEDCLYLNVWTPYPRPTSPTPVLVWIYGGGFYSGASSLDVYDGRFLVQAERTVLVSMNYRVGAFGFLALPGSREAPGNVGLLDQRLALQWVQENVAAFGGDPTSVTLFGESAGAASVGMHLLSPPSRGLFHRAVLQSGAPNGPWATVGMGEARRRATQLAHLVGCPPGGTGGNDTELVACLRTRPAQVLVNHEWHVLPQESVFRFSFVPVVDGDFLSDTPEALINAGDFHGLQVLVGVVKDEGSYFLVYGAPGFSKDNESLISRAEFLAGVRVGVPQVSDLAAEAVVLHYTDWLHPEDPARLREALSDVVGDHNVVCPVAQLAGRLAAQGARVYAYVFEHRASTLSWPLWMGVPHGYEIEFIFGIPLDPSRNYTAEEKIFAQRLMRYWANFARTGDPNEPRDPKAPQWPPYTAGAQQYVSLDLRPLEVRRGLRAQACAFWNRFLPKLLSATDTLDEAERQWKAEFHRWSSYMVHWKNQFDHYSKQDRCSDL
Protocol: The Ellman method was followed, using human recombinant AChE and BuChE from human serum. The assay solution consisted of 0.1 M phosphate buffer pH 8.0, 400 μM 5,5´-dithiobis(2-nitrobenzoic acid) (DTNB, Ellman’s reagent), 0.05 U/mL hAChE (Sigma Chemical Co.) or 0.024 U/mL hBuChE (Sigma Chemical Co.), and 800 μM acetylthiocholine iodide, or 500 μM butyrylthiocholine as the substrate of the enzymatic reaction, respectively. The compounds tested were added to the assay solution and preincubated with the enzyme for 5 min at 30 °C. After that period, the substrate was added.

recombinant hMAO-A = biological target: T2, recombinant hMAO-A (Homo sapiens, UniProt P21397); assay: biochemical; assay type: biochemical; settings: mean ± SEM (n = 3); 100 µM highest concentration tested
T2 sequence (P21397 1-527): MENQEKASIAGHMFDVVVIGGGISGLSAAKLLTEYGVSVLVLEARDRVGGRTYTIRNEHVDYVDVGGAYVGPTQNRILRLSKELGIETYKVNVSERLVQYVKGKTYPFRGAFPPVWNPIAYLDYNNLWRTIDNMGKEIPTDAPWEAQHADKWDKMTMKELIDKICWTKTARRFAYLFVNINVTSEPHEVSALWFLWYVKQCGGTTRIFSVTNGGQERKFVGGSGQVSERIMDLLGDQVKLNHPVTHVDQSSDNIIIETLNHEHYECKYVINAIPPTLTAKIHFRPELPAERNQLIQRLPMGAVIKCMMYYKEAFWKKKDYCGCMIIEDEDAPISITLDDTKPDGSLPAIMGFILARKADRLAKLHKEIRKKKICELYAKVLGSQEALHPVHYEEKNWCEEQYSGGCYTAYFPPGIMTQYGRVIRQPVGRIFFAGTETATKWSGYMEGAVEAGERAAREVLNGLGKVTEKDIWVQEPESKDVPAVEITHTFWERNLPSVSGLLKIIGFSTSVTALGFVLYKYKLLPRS

recombinant hMAO-B = biological target: T3, recombinant hMAO-B (Homo sapiens, UniProt P27338); assay: biochemical; assay type: biochemical; settings: for IC50: mean ± SEM (n = 3), 100 µM highest concentration tested
T3 sequence (P27338 1-520): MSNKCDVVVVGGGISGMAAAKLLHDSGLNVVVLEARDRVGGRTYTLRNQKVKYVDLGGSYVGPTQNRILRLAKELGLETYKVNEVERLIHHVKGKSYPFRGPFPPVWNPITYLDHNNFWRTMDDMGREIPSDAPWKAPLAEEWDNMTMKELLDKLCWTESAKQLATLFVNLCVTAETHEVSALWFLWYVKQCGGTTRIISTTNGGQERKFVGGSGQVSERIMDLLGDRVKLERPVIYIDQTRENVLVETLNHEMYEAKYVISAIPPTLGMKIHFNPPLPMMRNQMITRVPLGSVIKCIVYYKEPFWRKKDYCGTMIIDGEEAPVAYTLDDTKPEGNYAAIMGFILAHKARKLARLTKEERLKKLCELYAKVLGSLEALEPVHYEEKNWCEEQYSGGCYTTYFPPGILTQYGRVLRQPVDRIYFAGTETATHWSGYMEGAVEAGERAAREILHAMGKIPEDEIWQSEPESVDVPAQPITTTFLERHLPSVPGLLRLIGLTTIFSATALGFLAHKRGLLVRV

[2] = In vitro blood-brain barrier permeation assay (PAMPA-BBB); assay type: in vitro ADME; settings: pig, pH 7.4, porcine brain lipid, PBS:ethanol (70:30), 25 °C, read-out: PAMPA-BBB permeability in the CNS (Pe)
Protocol: Prediction of the brain penetration was evaluated using a parallel artificial membrane permeation assay (PAMPA-BBB), in a similar manner as previously described[36]^,[46]^,[51–53]. Pipetting was performed with a semi-automatic pipettor (CyBi®-SELMA) and UV reading with a microplate spectrophotometer (Multiskan Spectrum, Thermo Electron Co.). Commercial drugs, phosphate buffered saline solution at pH 7.4 (PBS), and dodecane were purchased from Sigma, Aldrich, Acros, and Fluka. Millex filter units (PVDF membrane, diameter 25 mm, pore size 0.45 μm) were acquired from Millipore. The porcine brain lipid (PBL) was obtained from Avanti Polar Lipids. The donor microplate was a 96-well filter plate (PVDF membrane, pore size 0.45 μm) and the acceptor microplate was an indented 96-well plate, both from Millipore. The acceptor 96-well microplate was filled with 200 μL of PBS: ethanol (70:30) and the filter surface of the donor microplate was impregnated with 5 μL of porcine brain lipid (PBL) in dodecane (20 mg mL^−1). Compounds were dissolved in PBS: ethanol (70:30) at 100 μg mL^−1, filtered through a Millex filter, and then added to the donor wells (200 μL). The donor filter plate was carefully put on the acceptor plate to form a sandwich, which was left undisturbed for 120 min at 25 °C. After incubation, the donor plate is carefully removed and the concentration of compounds in the acceptor wells was determined by UV-Vis spectroscopy. Every sample is analysed at five wavelengths, in four wells and at least in three independent runs, and the results are given as the mean ± standard deviation. In each experiment, 11 quality control standards of known BBB permeability were included to validate and normalise the analysis set.
To check if new compounds could be able to reach their CNS-targets, we used the in vitro parallel artificial membrane permeability assay for the blood-brain barrier (PAMPA-BBB) described by Di et al.[87], and partially modified by us for testing molecules with limited water-solubility[36]^,[46]^,[51–53]. The passive CNS-permeation of new compounds 1–13 through a lipid extract of porcine brain was measured at room temperature. In each experiment, 11 commercial drugs of known brain permeability were also tested and their permeability values normalised to the reported PAMPA-BBB data. […].

[3] = Oxygen radical absorbance capacity assay (ORAC); settings: trolox taken as 1.0
hLOX-5 = biological target: T4, hLOX-5 (Homo sapiens, UniProt P09917); assay: Inhibition of human lipoxygenase-5 (fluorescence-based, Pufahl); assay type: biochemical; settings: three independent experiments
T4 sequence (P09917 1-674): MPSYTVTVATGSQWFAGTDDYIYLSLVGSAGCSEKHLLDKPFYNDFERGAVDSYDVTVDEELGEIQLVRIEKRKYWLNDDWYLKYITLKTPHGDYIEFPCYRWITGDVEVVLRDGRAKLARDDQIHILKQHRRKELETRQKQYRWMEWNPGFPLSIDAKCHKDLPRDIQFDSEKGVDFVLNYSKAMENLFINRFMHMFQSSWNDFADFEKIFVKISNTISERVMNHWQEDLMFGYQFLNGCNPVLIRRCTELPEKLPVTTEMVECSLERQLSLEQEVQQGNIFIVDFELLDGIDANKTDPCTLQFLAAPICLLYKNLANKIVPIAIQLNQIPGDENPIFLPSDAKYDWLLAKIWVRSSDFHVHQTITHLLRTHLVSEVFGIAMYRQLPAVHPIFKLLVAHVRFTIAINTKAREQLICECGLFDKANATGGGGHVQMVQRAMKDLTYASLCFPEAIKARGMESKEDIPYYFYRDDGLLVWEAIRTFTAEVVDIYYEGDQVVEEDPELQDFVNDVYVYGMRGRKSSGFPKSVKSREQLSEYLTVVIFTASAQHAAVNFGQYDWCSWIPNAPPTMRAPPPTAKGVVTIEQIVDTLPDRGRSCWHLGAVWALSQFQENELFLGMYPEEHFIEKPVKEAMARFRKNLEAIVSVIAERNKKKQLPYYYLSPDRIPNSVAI
Protocol: The fluorescence-based enzyme method developed by Pufahl et al. was followed, in 96-well microtiter plates. The assay solution consists of Tris buffer (50 mM, pH 7.5), ethylenediaminetetraacetic acid (EDTA, 2 mM), CaCl2 (2 mM), arachidonic acid (AA, 3 μM), ATP (10 μM), 2',7'-dichlorodihydrofluorescein diacetate (H2DCFDA, 10 μM), hLOX-5 (100 mU/well), bovine glutathione peroxidase (GPx, 25 mU/well) and reduced glutathione (GSH, 1 mM). Compounds to be tested were added to the test solution prior to AA and ATP, and pre-incubated for a period of 10 min at room temperature. Then, the AA and ATP substrates were added; the enzymatic reaction allowed to progress for 20 min and ended by the addition of 40 μL of acetonitrile.
A selection of new hybrids covering different structural motifs was assayed as inhibitors of hLOX-5, followed the method described by Pufahl et al.[55].

[4] = mean ± SEM (n = 3), read-out: hAChE IC50

Question: For COc1cc2[nH]c(C(=O)Nc3ccc(CN(C)Cc4ccccc4)cc3)cc(=O)c2cc1OC [Compound 11, N-(4-((benzyl(methyl)amino)methyl)phenyl)-6,7-dimethoxy-4-oxo-1,4-dihydroquinoline-2-carboxamide], which IC50 ([1]; hAChE IC50, mean ± SEM (n = 3)) is on record?
Answer: 4.5 ± 0.3 µM

Question: What about the IC50 (recombinant hMAO-A) of the same compound?
Answer: > 100 µM

Question: And the IC50 (recombinant hMAO-B)?
Answer: > 100 µM

Question: And the Papp at 120 min, 100 μg mL^−1 [2]?
Answer: 19.1 ± 1.5 ×10⁻⁶ cm/s

Question: For COc1cc(OC)c2c(=O)cc(C(=O)Nc3ccc(CN(C)Cc4ccccc4)cc3)oc2c1 [Compound 3, N-(4-((Benzyl(methyl)amino)methyl)phenyl)-5,7-dimethoxy-4-oxo-4H-chromene-2-carboxamide], which IC50 ([1]; hAChE IC50, mean ± SEM (n = 3)) is on record?
Answer: 3.2 ± 0.4 µM

Question: And the IC50 (recombinant hMAO-A)?
Answer: > 100 µM

Question: And the IC50 (recombinant hMAO-B)?
Answer: > 100 µM

Question: What about the Papp at 120 min, 100 μg mL^−1 [2] of the same compound?
Answer: 19.4 ± 1.7 ×10⁻⁶ cm/s

Question: Which results are given for CN(Cc1ccccc1)Cc1ccc(NC(=O)c2cc(=O)c3cc(O)ccc3[nH]2)cc1 [Compound 9, N-(4-((Benzyl(methyl)amino)methyl)phenyl)-6-hydroxy-4-oxo-1,4-dihydroquinoline-2-carboxamide]?
Answer: IC50 ([1]; hAChE IC50, mean ± SEM (n = 3)): 3.1 ± 0.3 µM; IC50 (recombinant hMAO-A): > 100 µM; IC50 (recombinant hMAO-B): > 100 µM; ORAC, trolox equivalents [3]: 1.2 mmol of trolox/mmol of tested compound and 1.2 ± 0.1 mmol of trolox/mmol of tested compound; Papp at 120 min, 100 μg mL^−1 [2]: 8.4 ± 0.7 ×10⁻⁶ cm/s

Question: With COc1cccc2[nH]c(C(=O)Nc3ccc(CN(C)Cc4ccccc4)cc3)cc(=O)c12 [Compound 7, N-(4-((Benzyl(methyl)amino)methyl)phenyl)-5-methoxy-4-oxo-1,4-dihydroquinoline-2-carboxamide] as the compound, how does the IC50 [1, 4] read?
Answer: 4 ± 0.4 µM

Question: What about the IC50 (recombinant hMAO-A) of the same compound?
Answer: > 100 µM

Question: And the “more active in hMAO-B than in hMAO-A” value (recombinant hMAO-B)?
Answer: 6.6 fold

Question: What about the IC50 (recombinant hMAO-B) of the same compound?
Answer: 15.2 ± 1 µM

Question: What about the Papp at 120 min, 100 μg mL^−1 [2] of the same compound?
Answer: 23 ± 2.1 ×10⁻⁶ cm/s

Question: For COc1ccc2[nH]c(C(=O)Nc3ccc(CN(C)Cc4ccccc4)cc3)cc(=O)c2c1 [Compound 8, N-(4-((Benzyl(methyl)amino)methyl)phenyl)-6-methoxy-4-oxo-1,4-dihydroquinoline-2-carboxamide], which IC50 [1, 4] is on record?
Answer: 2.3 ± 0.1 µM

Question: And the IC50 (recombinant hMAO-A)?
Answer: > 100 µM

Question: And the IC50 (recombinant hMAO-B)?
Answer: > 100 µM

Question: What about the Papp at 120 min, 100 μg mL^−1 [2] of the same compound?
Answer: 24.8 ± 2 ×10⁻⁶ cm/s

Question: What about the “hLOX-5 IC50” value (hLOX-5; mean ± SEM) of the same compound?
Answer: inactive

Question: What about the IC50 (hLOX-5; mean ± SEM, read-out: hLOX-5 IC50) of the same compound?
Answer: > 100 µM

Question: For CN(Cc1ccccc1)Cc1ccc(NC(=O)c2cc(=O)c3cc(O)c(O)cc3[nH]2)cc1 [Compound 12, N-(4-((benzyl(methyl)amino)methyl)phenyl)-6,7-dihydroxy-4-oxo-1,4-dihydroquinoline-2-carboxamide], which IC50 ([1]; hAChE IC50, mean ± SEM (n = 3)) is on record?
Answer: > 10 µM

Question: And the IC50 (recombinant hMAO-A)?
Answer: > 100 µM

Question: What about the IC50 (recombinant hMAO-B) of the same compound?
Answer: > 100 µM

Question: What about the “ORAC, trolox equivalents” value [3] of the same compound?
Answer: 0.5 mmol of trolox/mmol of tested compound and 0.5 ± 0.1 mmol of trolox/mmol of tested compound

Question: And the Papp at 120 min, 100 μg mL^−1 [2]?
Answer: 8.8 ± 0.7 ×10⁻⁶ cm/s

Question: Which “ORAC, trolox equivalents” value [3] does the source give for Cc1c(C)c2c(c(C)c1O)CCC(C)(C(=O)O)O2 (racemic) [Trolox, (±)-6-hydroxy-2,5,7,8-tetramethylchromane-2-carboxylic acid, reference compound] here?
Answer: 1.0 mmol of trolox/mmol of tested compound

Question: With COc1cc2[nH]c(C(=O)Nc3cccc(CN(C)Cc4ccccc4)c3)cc(=O)c2cc1OC [Compound 13, N-(3-((Benzyl(methyl)amino)methyl)phenyl)-6,7-dimethoxy-4-oxo-1,4-dihydroquinoline-2-carboxamide] as the compound, how does the IC50 ([1]; hAChE IC50, mean ± SEM (n = 3)) read?
Answer: > 10 µM

Question: What about the IC50 (recombinant hMAO-A) of the same compound?
Answer: > 100 µM

Question: And the IC50 (recombinant hMAO-B)?
Answer: > 100 µM

Question: And the Papp at 120 min, 100 μg mL^−1 [2]?
Answer: 15.1 ± 1.2 ×10⁻⁶ cm/s

Question: And the IC50 (hLOX-5; hLOX-5 IC50, mean ± SEM)?
Answer: 36.6 ± 3.1 µM

Question: What does the source list for COc1ccc2c(=O)cc(C(=O)Nc3ccc(CN(C)Cc4ccccc4)cc3)[nH]c2c1 [Compound 10, N-(4-((Benzyl(methyl)amino)methyl)phenyl)-7-methoxy-4-oxo-1,4-dihydroquinoline-2-carboxamide]?
Answer: IC50 ([1]; hAChE IC50, mean ± SEM (n = 3)): 2.3 ± 0.2 µM; IC50 (recombinant hMAO-A): > 100 µM; IC50 (recombinant hMAO-B): > 100 µM; Papp at 120 min, 100 μg mL^−1 [2]: 21.7 ± 1.9 ×10⁻⁶ cm/s; IC50 (hLOX-5; hLOX-5 IC50, mean ± SEM): 82.8 ± 4.1 µM
